Source: patent US20240199623A1 (ILDONG PHARMACEUTICAL CO., LTD., priority 2020, published 2024)
Values after ≈ are worked out from the molar mass of the structure shown. Where two headings read alike, the source gives them in different places.

Tests used:
Human recombinant PDE4C1 = target: T1, Human recombinant PDE4C1 (Homo sapiens, UniProt Q08493); assay: Human phosphodiesterase 4 (PDE4) inhibition, PDE4C1; type: biochemical; conditions: read-out: % inhibition range at 10 uM PDE4C1
T1 construct: purchased BPS Bioscience; host or cells: insect Sf9 cells
Method: (§1) […] Human recombinant PDE4A1A, PDE4B 1, PDE4C1 and PDE4D2 are respectively expressed in each host cell (insect Sf9 cells, BPS Bioscience). Preincubation of 10 μM test compounds or vehicle was proceeded with 20 ng/ml PDE4A1A or 4 ng/ml PDE4B 1 or 8 ng/ml PDE4C1 or 5 ng/ml PDE4D2 enzyme in Tris-HCl buffer pH 7.2 for 15 minutes at 25° C. 100 nM fluorescein (FAM) labeled cAMP for another 30 minutes incubation period was added in order to initiate the enzymatic reaction and addition of IMAP binding solution was followed for its termination. Specifically, IMAP complexes with phosphate groups on nucleotide monophosphate generated from cyclic nucleotides through PDE activity. The amount of complex formed is determined by reading spectrofluorimetrical signal at 470 nm/525 nm.

[1] = target: T2, Human recombinant PDE4A1A (Homo sapiens, UniProt P27815); assay: Human phosphodiesterase 4 (PDE4) inhibition, PDE4A1A; type: biochemical; conditions: read-out: % inhibition range at 10 uM PDE4A1A
T2 construct: purchased BPS Bioscience; host or cells: insect Sf9 cells
Method: as §1

[2] = Phosphate-buffered saline (PBS) solubility of compounds; type: physicochemical; conditions: aqueous buffer, thermodynamic from solid, PBS pH 7.5, 0.5 mg/mL, vortexed 90 min, filtered, LC-MS/MS, read-out: Solubility Range
Method: PBS solutions (pH 7.5) were prepared according to the following compositions and stored at 4° C. Test compounds were dissolved in PBS (pH 7.5) at 0.5 mg/mL and vortexed for 90 min. The PBS solution was sequentially filtered through a 0.45, 1.2, […] syringe filter. Concentration of test compounds were determined using LC-MS/MS with appropriate dilution of the samples.

[3] = target: T3, Human recombinant PDE4B 1 (Homo sapiens, UniProt Q07343); assay: Human phosphodiesterase 4 (PDE4) inhibition, PDE4B 1; type: biochemical; conditions: read-out: % inhibition range at 10 uM PDE4B1
T3 construct: purchased BPS Bioscience; host or cells: insect Sf9 cells
Method: as §1

Human recombinant PDE4D2 = target: T4, Human recombinant PDE4D2 (Homo sapiens, UniProt Q08499); assay: Human phosphodiesterase 4 (PDE4) inhibition, PDE4D2; type: biochemical; conditions: read-out: % inhibition range at 10 uM PDE4D2
T4 construct: purchased BPS Bioscience; host or cells: insect Sf9 cells
Method: as §1

human wild type-CFTR [4] = target: T5, human wild type-CFTR (Homo sapiens, UniProt P13569); assay: Cell-based YFP assay; parameters: expressed in transfected cells; host or cells: CHO-K1 (Chinese hamster ovary); conditions: CHO-K1 cells expressing human wild type-CFTR and YFP-H148Q/I152L; forskolin 20 μM = 100% activity; read-out: Cell-based YFP Assay (EC50) Concentration Range
How it was run: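 I⁻-driven YFP fluorescence quenching at 37 °C: 2 s baseline, addition of 140 mM iodide solution, then 14 s of readings at 0.4 s intervals. Cells were CHO-K1 expressing human wild-type CFTR plus YFP-H148Q/I152L. EC50 derived from averaged triplicates.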

human wild type-CFTR [5] = target: T5, human wild type-CFTR; assay: Short-circuit current measurement; type: cell-based; parameters: expressed in transfected cells; conditions: FRT cells expressing human wild type-CFTR; Forskolin 20 μM signal used as 100% activity; read-out: Short-circuit current measurement (EC50) Concentration range
How it was run: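 FRT monolayers stably carrying human wild-type CFTR were mounted in Ussing chambers; forskolin, compounds and the inhibitor CFTRinh-172 went to apical and basolateral sides. Read-outs were apical membrane current and short-circuit current, recorded at 4 Hz.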

T4 sequence (Q08499 303-809 limits assumed): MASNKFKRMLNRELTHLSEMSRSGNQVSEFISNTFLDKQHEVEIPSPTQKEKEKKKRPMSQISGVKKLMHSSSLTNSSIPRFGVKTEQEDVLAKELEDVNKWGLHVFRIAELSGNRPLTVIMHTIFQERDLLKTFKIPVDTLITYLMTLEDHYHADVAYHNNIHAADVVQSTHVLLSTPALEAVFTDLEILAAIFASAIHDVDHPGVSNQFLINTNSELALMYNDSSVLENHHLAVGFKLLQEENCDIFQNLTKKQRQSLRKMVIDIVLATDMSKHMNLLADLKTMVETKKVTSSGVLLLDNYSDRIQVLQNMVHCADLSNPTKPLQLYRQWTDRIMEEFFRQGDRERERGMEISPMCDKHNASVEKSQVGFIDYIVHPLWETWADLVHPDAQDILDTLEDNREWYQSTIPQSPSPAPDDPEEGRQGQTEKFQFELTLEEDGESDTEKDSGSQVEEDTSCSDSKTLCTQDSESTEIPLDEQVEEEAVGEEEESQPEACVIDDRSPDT
T2 sequence (P27815 1-647 isoform P27815-4): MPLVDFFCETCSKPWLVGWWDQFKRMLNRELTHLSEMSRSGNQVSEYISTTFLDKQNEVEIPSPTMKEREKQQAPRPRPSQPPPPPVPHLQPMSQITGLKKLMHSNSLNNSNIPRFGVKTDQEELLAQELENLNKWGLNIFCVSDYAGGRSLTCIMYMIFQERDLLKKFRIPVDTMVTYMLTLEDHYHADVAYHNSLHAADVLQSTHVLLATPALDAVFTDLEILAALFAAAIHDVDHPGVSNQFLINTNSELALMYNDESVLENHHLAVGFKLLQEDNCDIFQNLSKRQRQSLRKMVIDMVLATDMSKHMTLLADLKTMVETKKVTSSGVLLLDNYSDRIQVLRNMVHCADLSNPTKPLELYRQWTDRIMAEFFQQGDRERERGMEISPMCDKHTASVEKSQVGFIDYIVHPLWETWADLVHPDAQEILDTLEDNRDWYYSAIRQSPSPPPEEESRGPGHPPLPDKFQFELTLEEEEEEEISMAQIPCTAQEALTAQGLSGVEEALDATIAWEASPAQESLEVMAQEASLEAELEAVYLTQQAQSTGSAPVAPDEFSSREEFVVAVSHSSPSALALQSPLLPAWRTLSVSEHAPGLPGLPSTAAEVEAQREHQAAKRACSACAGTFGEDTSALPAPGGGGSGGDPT
T1 sequence (Q08493 whole entry): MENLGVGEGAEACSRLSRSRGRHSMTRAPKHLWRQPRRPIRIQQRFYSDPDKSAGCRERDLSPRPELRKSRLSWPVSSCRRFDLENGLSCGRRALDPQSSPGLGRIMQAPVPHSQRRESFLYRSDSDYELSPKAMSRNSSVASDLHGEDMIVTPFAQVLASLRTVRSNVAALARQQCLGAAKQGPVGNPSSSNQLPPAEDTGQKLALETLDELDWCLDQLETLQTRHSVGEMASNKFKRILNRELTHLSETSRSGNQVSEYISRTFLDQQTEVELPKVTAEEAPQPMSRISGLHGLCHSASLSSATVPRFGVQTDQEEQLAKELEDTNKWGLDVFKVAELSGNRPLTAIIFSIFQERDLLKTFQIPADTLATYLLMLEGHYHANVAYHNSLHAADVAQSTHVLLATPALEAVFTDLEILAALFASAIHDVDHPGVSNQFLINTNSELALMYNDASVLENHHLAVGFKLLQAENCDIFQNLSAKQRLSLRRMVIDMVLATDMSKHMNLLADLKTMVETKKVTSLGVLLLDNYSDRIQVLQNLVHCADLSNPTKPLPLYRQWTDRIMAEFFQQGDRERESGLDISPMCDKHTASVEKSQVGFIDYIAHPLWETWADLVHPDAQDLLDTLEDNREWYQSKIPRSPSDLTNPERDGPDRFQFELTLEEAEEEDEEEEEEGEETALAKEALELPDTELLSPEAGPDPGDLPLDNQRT
T3 sequence (Q07343 whole entry): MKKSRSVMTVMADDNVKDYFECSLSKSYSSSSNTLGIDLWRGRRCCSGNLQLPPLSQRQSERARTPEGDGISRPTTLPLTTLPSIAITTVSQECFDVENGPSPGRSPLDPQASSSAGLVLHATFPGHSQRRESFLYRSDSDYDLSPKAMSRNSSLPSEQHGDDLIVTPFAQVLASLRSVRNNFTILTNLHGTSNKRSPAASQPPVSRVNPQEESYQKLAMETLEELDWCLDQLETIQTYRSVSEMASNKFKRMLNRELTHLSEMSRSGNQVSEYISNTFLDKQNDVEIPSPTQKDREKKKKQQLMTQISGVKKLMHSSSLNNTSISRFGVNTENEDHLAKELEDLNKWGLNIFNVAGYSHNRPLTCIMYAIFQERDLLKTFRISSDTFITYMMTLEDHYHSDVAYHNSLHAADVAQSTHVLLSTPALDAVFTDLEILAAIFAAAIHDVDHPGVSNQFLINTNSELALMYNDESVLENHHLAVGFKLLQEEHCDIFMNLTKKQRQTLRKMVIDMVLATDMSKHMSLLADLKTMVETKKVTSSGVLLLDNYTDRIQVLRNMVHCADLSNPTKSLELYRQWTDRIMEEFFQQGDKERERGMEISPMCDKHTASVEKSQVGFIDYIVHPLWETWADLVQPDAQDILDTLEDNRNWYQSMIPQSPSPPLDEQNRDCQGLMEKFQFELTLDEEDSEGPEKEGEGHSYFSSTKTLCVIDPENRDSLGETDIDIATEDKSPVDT
T5 sequence (P13569 whole entry): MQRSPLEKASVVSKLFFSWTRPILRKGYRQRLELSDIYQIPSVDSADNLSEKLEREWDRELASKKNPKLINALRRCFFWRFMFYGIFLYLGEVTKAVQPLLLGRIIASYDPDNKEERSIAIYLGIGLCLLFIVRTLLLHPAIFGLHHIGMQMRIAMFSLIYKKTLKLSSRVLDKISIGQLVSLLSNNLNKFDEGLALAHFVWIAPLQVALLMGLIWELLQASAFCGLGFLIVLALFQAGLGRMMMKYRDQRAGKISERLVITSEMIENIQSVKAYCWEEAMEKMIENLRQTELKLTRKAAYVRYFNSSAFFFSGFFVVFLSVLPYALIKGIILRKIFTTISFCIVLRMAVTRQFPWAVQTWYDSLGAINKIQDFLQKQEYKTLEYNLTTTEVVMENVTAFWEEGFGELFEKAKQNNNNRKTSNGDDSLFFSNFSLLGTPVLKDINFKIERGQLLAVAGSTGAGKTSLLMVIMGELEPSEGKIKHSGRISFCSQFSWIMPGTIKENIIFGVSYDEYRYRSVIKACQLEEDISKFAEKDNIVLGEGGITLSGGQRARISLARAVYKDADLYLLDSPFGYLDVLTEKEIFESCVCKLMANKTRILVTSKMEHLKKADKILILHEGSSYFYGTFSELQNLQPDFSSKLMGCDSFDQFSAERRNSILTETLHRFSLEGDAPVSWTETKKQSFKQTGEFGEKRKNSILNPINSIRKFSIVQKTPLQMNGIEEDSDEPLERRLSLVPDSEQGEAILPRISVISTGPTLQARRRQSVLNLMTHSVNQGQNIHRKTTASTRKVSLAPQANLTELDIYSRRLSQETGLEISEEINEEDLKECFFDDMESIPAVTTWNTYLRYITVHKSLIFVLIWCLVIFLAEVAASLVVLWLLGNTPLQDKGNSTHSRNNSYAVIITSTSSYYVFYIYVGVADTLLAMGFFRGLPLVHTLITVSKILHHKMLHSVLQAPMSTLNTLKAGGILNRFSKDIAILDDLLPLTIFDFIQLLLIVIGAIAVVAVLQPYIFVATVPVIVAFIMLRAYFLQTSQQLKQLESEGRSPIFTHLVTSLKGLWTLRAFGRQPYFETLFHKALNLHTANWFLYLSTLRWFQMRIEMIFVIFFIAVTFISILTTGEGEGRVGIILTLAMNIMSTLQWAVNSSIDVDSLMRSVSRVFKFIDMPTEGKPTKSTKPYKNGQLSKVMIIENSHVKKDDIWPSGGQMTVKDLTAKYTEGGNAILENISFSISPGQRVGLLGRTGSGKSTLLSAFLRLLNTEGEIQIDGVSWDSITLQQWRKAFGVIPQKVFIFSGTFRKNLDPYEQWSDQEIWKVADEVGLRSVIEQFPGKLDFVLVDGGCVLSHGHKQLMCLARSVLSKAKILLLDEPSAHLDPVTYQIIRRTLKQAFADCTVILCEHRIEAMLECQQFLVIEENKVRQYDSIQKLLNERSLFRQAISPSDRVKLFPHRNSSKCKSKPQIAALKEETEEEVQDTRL

Structure (SMILES) | inhibition at 10 µM (Human recombinant PDE4C1; 10 uM test compound) [%] | inhibition at 10 µM ([1]; 10 uM test compound) [%] | solubility at 90 min [2] [µg/mL] | inhibition at 10 µM ([3]; 10 uM test compound) [%] | inhibition at 10 µM (Human recombinant PDE4D2; 10 uM test compound) [%] | inhibition at 10 µM (Human recombinant PDE4C1) [%] | inhibition at 10 µM [1] [%] | EC50 (human wild type-CFTR [4]) [nM] | inhibition at 10 µM [3] [%] | inhibition at 10 µM (Human recombinant PDE4D2) [%] | EC50 (human wild type-CFTR [5]) [nM]
COC(=O)c1ccccc1NC(=O)c1cc2nccc(-c3ccc(OC)c(OC)c3)n2n1 [Compound 7, methyl 2-(7-(3,4-dimethoxyphenyl)pyrazolo [1,5-a]pyrimidine-2-carboxamido)benzoate] | < 50 | < 50 | < 0.1 | < 50 | < 50 | – | – | – | – | – | –
COc1ccc(-c2ccnc3cc(C(=O)N[C@H]4CC[C@H](C(=O)OC)CC4)nn23)cc1OC [Compound 10, methyl (1r,4r)-4-(7-(3,4-dimethoxyphenyl)pyrazolo[1,5-a]pyrimidine-2-carboxamido)cyclohexane-1-carboxylate] | > 80 | > 80 | 0.1 to 10 (≈ 0.228 to 22.8 µM) | > 80 | > 80 | – | – | – | – | – | –
COC(=O)c1ccc(NC(=O)c2cc3nccc(-c4ccc(OC)c(OC)c4)n3n2)cc1 [Compound 11, methyl 4-(7-(3,4-dimethoxyphenyl)pyrazolo[1,5-a]pyrimidine-2-carboxamido)benzoate] | – | – | < 0.1 | – | – | > 80 | > 80 | < 200 | > 80 | > 80 | < 200
COC(=O)c1ccc(CNC(=O)c2cc3nccc(-c4ccc(OC)c(OC)c4)n3n2)cc1 [Compound 12, methyl 4-((7-(3,4-dimethoxyphenyl)pyrazolo [1,5-a]pyrimidine-2-carboxamido)methyl) benzoate] | 50 to 80 | > 80 | < 0.1 | 50 to 80 | 50 to 80 | – | – | 200 to 2000 | – | – | ≥ 2000
COC(=O)c1ccc(NC(=O)c2cc3nccc(-c4ccc(OC)c(F)c4)n3n2)cc1 [Compound 33, methyl 4-(7-(3-fluoro-4-methoxyphenyl)pyrazolo [1,5-a]pyrimidine-2-carboxamido)benzoate] | < 50 | 50 to 80 | < 0.1 | 50 to 80 | 50 to 80 | – | – | 200 to 2000 | – | – | ≥ 2000
COc1ccc(-c2ccnc3cc(C(=O)Nc4ccc(C(=O)N5CCOCC5)cc4)nn23)cc1OC [Compound 41, 7-(3,4-dimethoxyphenyl)-N-(4-(morpholine-4-carbonyl)phenyl)pyrazolo [1,5-a]pyrimidine-2-carboxamide] | > 80 | > 80 | < 0.1 | > 80 | > 80 | – | – | – | – | – | –
COC(=O)C(=Cc1ccccc1)NC(=O)c1cc2nccc(-c3ccc(OC)c(OC)c3)n2n1 [Compound 105, methyl 2-(7-(3,4-dimethoxyphenyl)pyrazolo [1,5-a]pyrimidine-2-carboxamido) 3-phenylacrylate] | > 80 | > 80 | < 0.1 | > 80 | > 80 | – | – | < 200 | – | – | 200 to 2000
COc1ccc(-c2ccnc3cc(NC(=O)Nc4ccc(C(=O)N5CCOCC5)cc4)nn23)cc1OC [Compound 129, 1-(7-(3,4-dimethoxyphenyl)pyrazolo[1,5-a]pyrimidin-2-yl)-3-(4-(morpholine-4-carbonyl)phenyl)urea] | > 80 | > 80 | – | > 80 | > 80 | – | – | 200 to 2000 | – | – | ≥ 2000
COc1ccc(-c2ccnc3cc(C(=O)Nc4ccc(C(=O)N5CCOCC5)cn4)nn23)cc1OC [Compound 135, 7-(3,4-dimethoxyphenyl)-N-(5-(morpholine-4-carbonyl)pyridin-2-yl) pyrazolo[1,5-a] pyrimidine-2-carboxamide] | > 80 | > 80 | < 0.1 | > 80 | > 80 | – | – | < 200 | – | – | < 200
COC(=O)c1ccc(NC(=O)c2cc3nccc(-c4ccc(OC)c(OC)c4)n3n2)c(F)c1 [Compound 136, methyl 4-(7-(3,4-dimethoxyphenyl)pyrazolo[1,5-a]pyrimidine-2-carboxamido)-3-fluorobenzoate] | > 80 | > 80 | < 0.1 | > 80 | > 80 | – | – | – | – | – | –
COc1ccc(-c2ccnc3cc(C(=O)Nc4ccc(OCCN5CCOCC5)cc4)nn23)cc1OC [Compound 198, 7-(3,4-dimethoxyphenyl)-N-(4-(2-morpholinoethoxy)phenyl)pyrazolo[1,5-a]pyrimidine-2-carboxamide] | > 80 | > 80 | – | > 80 | > 80 | – | – | < 200 | – | – | < 200
COc1ccc(-c2ccnc3cc(C(=O)N4CCN(C(=O)c5ccccc5)[C@@H](C)C4)nn23)cc1OC [Compound 210, (S)-(4-benzoyl-3-methylpiperazin-1-yl)(7-(3,4-dimethoxyphenyl)pyrazolo[1,5-a]pyrimidin-2-yl)methanone] | > 80 | > 80 | 0.1 to 10 (≈ 0.206 to 20.6 µM) | > 80 | > 80 | – | – | – | – | – | –
COc1ccc(-c2ccnc3cc(C(=O)N4CCN(C(=O)c5cccs5)[C@@H](C)C4)nn23)cc1OC [Compound 352, (S)-(7-(3,4-dimethoxyphenyl)pyrazolo[1,5-a]pyrimidin-2-yl)(3-methyl-4-(thiophene-2-carbonyl)piperazin-1-yl) methanone] | > 80 | > 80 | – | > 80 | > 80 | – | – | < 200 | – | – | –
COc1ccc(-c2ccnc3cc(C(=O)N4CCN(S(=O)(=O)c5ccccc5)[C@@H](C)C4)nn23)cc1OC [Compound 355, (S)-(7-(3,4-dimethoxy-phenyl)pyrazolo[1,5-a]pyrimidin-2-yl)(3-methyl-4-(phenylsulfonyl)piperazin-1-yl)methanone] | > 80 | > 80 | – | > 80 | > 80 | – | – | < 200 | – | – | –
COc1ccc(-c2ccnc3cc(C(=O)N4CCN(C(=O)c5ccccn5)[C@@H](C)C4)nn23)cc1OC [Compound 380, (S)-(7-(3,4-dimethoxyphenyl)pyrazolo[1,5-a]pyrimidin-2-yl) (3-methyl-4-picolinoylpiperazin-1-yl)methanone] | 50 to 80 | > 80 | – | > 80 | > 80 | – | – | < 200 | – | – | –
COc1ccc(-c2ccnc3cc(C(=O)N4CC[C@@H](NC(=O)c5ccccc5)C4)nn23)cc1OC [Compound 384, (R)-N-(1-(7-(3,4-dimethoxyphenyl)pyrazolo[1,5-a]pyrimidine-2-carbonyl)pyrrolidin-3-yl)benzamide] | 50 to 80 | > 80 | – | > 80 | > 80 | – | – | < 200 | – | – | –
